Results on six substances are retold here after article PMC9402926, “Synthetic short-chain peptide analogues of H1 relaxin lack affinity for the RXFP1 receptor and relaxin-like bioactivity. Clues to a better understanding of relaxin agonist design” (Frontiers in Pharmacology, 2022).

The test system of data set [1] is RXFP1. The data set can be described thus: ERK1/2 phosphorylation in TGF-β1-induced myofibroblasts from NIH-3T3 fibroblasts expressing RXFP1, Western blot. The data set is classed as cell-based. As to conditions: mouse myofibroblasts (TGF-β 48 h), 30 and 90 min, 3 independent experiments. How it is done: Cell culture for ERK1/2 phosphorylation assay - The RXFP1 downstream ERK1/2 phosphorylation pathway was tested on myofibroblasts using a method based on that described by [Hossain et al. (2016)], with minor modifications. Mouse NIH-3T3 fibroblasts (ATCC, Manassas, VA, United States) expressing RXFP1 ([Sassoli et al., 2013]) were cultured in DMEM supplemented with 10% fetal bovine serum (FBS), 2 mm glutamine, 250 U/ml penicillin G and 250 μg/ml streptomycin, in a humidified atmosphere with 5% CO2 at 37°C. They were induced to myofibroblasts in DMEM containing 2% FBS and 2 ng/ml human TGF-β1 (PeproTech, Rocky Hill, NJ, United States) for 12, 24, 48 and 72 h ([Sassoli et al., 2013]). Myofibroblasts were then incubated for 30 or 90 min with either serelaxin (17 nM), or B7-33 (1.7 μM), or the H1 peptides 6 and 7 (1.7 μM), selected among those which had shown a minimal ability to bind RXFP1 in the competition binding experiments. Untreated myofibroblasts were used as controls. To verify fibroblast-to-myofibroblast transition and ERK1/2 phosphorylation, cells were lysed in cold buffer composed of (mM): 10 Tris/HCl pH 7.4, 10 NaCl, 1.5 MgCl2, 2 Na2EDTA, 1% Triton X-100, added with 10x Sigmafast Protease Inhibitor Cocktail tablets and […] Na3VO4 to inhibit endogenous phosphatases. Total protein content was measured spectrophotometrically using micro-BCA Protein Assay Kit (Pierce). Sixty μg of total proteins were electrophoresed by SDS–PAGE and blotted onto PVDF membranes (Millipore, Bedford, MA, United States). […] Specific bands were detected using appropriate peroxidase-labeled secondary antibodies (1:15,000; Vector, Burlingame, CA, United States) and enhanced chemiluminescent substrate (ECL, Sigma-Aldrich). […]
In general terms: Immunoblotting shows a protein as a band on a membrane.

In data set [2] the test system is RXFP1-BP (ectodomain of human RXFP1 fused to the single transmembrane and cytoplasmic region of CD8). The data set can be described thus: Competition binding with europium-labelled H2 relaxin in HEK-293T cells stably expressing RXFP1-BP. Particulars: 10 µM competing peptide; 1 nm europium-labeled H2 relaxin; whole cells, 96 well plates; triplicate points, 2 independent experiments. The text has this:
Cell culture for ligand-receptor binding assays—Human embryonic kidney cells (HEK-293T) stably expressing RXFP1-BP ([Halls et al., 2005]) were used for competition binding experiments using europium-labelled H2 relaxin, as described ([Shabanpoor et al., 2012]). This construct contains the ectodomain of human RXFP1 fused to the single transmembrane and cytoplasmic region of CD8. This ectodomain-only construct has a higher affinity for single chain H2 relaxin peptides and is used as a surrogate assay for binding affinity. Assays were performed in whole cell 96 well plates assays with a single concentration of the europium-labeled H2 relaxin (1 nm) in the presence or absence of increasing concentrations of the competing peptides. Non-specific binding was assessed using 1 µM of serelaxin. Each concentration point was assessed in triplicate in 2 independent experiments. The binding data were analyzed using GraphPad Prism 9 and expressed as mean ± SEM. They were fitted using a one site binding model.

The target of data set [3] is RXFP1-BP (ectodomain of human RXFP1 fused to the single transmembrane and cytoplasmic region of CD8). The data set can be described thus: competition binding with europium-labelled ligand on whole cells; whole cells in 96 well plates; HEK-293T stably expressing RXFP1-BP; single concentration of europium-labeled H2 relaxin (1 nm as printed) with or without increasing concentrations of the competing peptides; non-specific binding with 1 µM serelaxin; triplicates, 2 independent experiments; one site binding model.

In data set [4] the test system is RXFP1. The data set can be described thus: cAMP generation in human monocytic THP-1 cells (RXFP1 downstream pathway), Direct cAMP ELISA. As to conditions: serelaxin 17 nm, 15 min, IBMX 100 μM, 3 independent experiments. The data set is classed as cell-based. The protocol: Cell culture for cAMP assay—The RXFP1 downstream cAMP pathway was tested on human monocytic THP-1 cells (ECACC, Salisbury, UK) cultured in suspension in RPMI medium containing 10% foetal bovine serum, 0.05 mm 2-mercaptoethanol, 250 U/ml penicillin G and 250 μg/ml streptomycin, in a 5% CO2 atmosphere at 37°C. Cells (5 × 10^5) were placed in a 24-well plate, added with IBMX (100 μM) to prevent cAMP catabolism and then incubated with the different stimulants. As positive controls, either serelaxin (17 nm) and B7-33 (17, 170, 1700 nm) were used. The H1 peptides 4, 6 and 7, selected among those which had shown a minimal ability to bind RXFP1 in the competition binding experiments, were also used at 17, 170 and 1700 nm final concentration. The cAMP assay was carried out 15 min after RXFP1 stimulation, coinciding with the second sustained cAMP surge ([Nguyen et al., 2003]; [Bani et al., 2007]). The adenylate cyclase activator forskolin (100 μM) was used to determine the maximal cAMP levels. Triplicate cAMP measurements were performed by a Direct cAMP ELISA Kit (Enzo, Milan, Italy). […] The values of cAMP were normalized by the amount of proteins, measured by the micro-BCA Protein Assay Kit (Pierce, IL, United States) and expressed as mg/ml. For statistical purposes, 3 independent experiments were performed.
A general note: In an ELISA, binding on a coated surface is turned into a signal by an enzyme label.

The conditions of data set [5]: i.v. administration; ref Chen et al., 1993; cited from earlier work. The protocol: Since recombinant human H2 relaxin (RLX), later termed serelaxin, was made available as clinical-grade drug ([Stults et al., 1990]), several clinical trials have been performed to explore its therapeutic potential, particularly as cardiovascular and anti-fibrotic agent ([Bani 2020]; [Samuel and Bennett 2021]; [Sassoli et al., 2022]). The last RELAX-AHF-2 phase III trial was performed under the auspices of Novartis Europharm Ltd., owner of the serelaxin patent, to assess its efficacy in patients with heart failure. Regrettably, in spite of encouraging theoretical premises and pre-clinical evide ...

For the substance “[Ser^10,22]Cyclo[Pra^17, LysN3 ^21]H1RLXB(1–23) [compound 6]”, in the data set with RXFP1 [1] (peptide 1.7 μM), the ERK1/2 phosphorylation result was “neither of the H1 peptides 6 and 7 were capable of reproducing the effects of the authentic hormone”. The “competition of Eu-H2 relaxin binding” value in data set [2] is listed as ~20%.
The substance “[Ser10,22]Cyclo[LysN3 17, Pra21]H1RLXB(1-23) (peptide)” gave a percent competition of Eu-H2 relaxin binding at 10 µM in data set [3] of 20%.
On to serelaxin, for which the ERK1/2 phosphorylation entry with RXFP1 [1] (serelaxin 17 nM) is reported as “statistically significant increase in ERK1/2 phosphorylation”. Besides, in the data set with RXFP1 [4], the “elevation of cAMP” value is “statistically significant elevation of cAMP”. Further, the half-life in data set [5] is recorded as ~2 h.
As for “[Ser^10,22]Cyclo[Pra^14, LysN3 ^18]H1RLXB(1–23) [compound 4]”, the “competition of Eu-H2 relaxin binding” value in data set [2] is ~20%.
Turning to “[Ser^10,22]Cyclo[LysN3 ^17, Pra^21]H1RLXB(1–23) [compound 7]”, in the data set on RXFP1 [1] (peptide 1.7 μM), the ERK1/2 phosphorylation result was “neither of the H1 peptides 6 and 7 were capable of reproducing the effects of the authentic hormone”. The “competition of Eu-H2 relaxin binding” value in data set [2] is given as ~20%.
Substance “[Ser10,22]Cyclo[Pra17, LysN3 21]H1RLXB(1-23) (peptide)” returned a percent competition of Eu-H2 relaxin binding at 10 µM in data set [3] of 20%.

Broadly, the half-life is the time in which the quantity being followed falls by half.
